Test results from patent US20140357713A1, “ANTIMICROBIAL COMPOUNDS AND METHODS OF USE” (NexMed Holdings, Inc., priority 2012, published 2014).
Counter-ions that a name gives are not always drawn. Like-named read-outs stand apart in the source and are kept apart here.

Legend:
[1] = test system: Aspergillus niger (CMCC 98003); assay: Minimum inhibitory concentration (MIC) assay, Example 33; type: cell-based; conditions: for MIC Aspergillus niger: n = 2
Method in brief: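 Broth microdilution MIC per CLSI guidelines in RPMI 1640 with serial 2-fold compound dilutions. Spore suspension from sporulating colonies adjusted to OD530 0.09-0.13, diluted 1:50 as 2× inoculum and added 1:2 to drug wells; plates incubated at 35 °C and MIC read per CLSI.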

[2] = test system: Staphulococcus aureus (ATCC 29213); assay: as above; type: cell-based, Staphylococcus aureus
Method in brief: (§1)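 Broth microdilution per CLSI guidelines in CAMHB, with 2-fold serial compound dilutions. Inoculum was set to a 0.5 McFarland standard, diluted 1:100 to twice the test density, then mixed 1:2 with drug. Plates were incubated at 35° C and the MIC read per CLSI.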

[3] = test system: Pseudomonas aeruginosa (ATCC 27853); assay: Time kill study, Example 33 (0 to 5 min); type: cell-based; conditions: 1×MIC
Method in brief: (§2)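 Performed per CLSI guidelines. Strain suspensions prepared as for MIC testing were mixed with compound solution in equal volume; samples taken at 0 min, 30 sec, 1 min and 5 mins were diluted in test medium, streaked on agar, and colonies counted after 24 to 48 hrs to give viable counts in Log10 CFU/mL.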

[4] = test system: Staphylococcus aureus (ATCC 29213); assay: Time kill study, Example 33 (0 to 5 min); type: cell-based; conditions: 1×MIC
Method in brief: as §2

[5] = test system: Escherichia coli (ATCC 25922); assay: Time kill study, Example 33 (0 to 5 min); type: cell-based; conditions: 1×MIC
Method in brief: as §2

pH (Table 1) = type: physicochemical
[6] = Solubility (Sol., Table 1); type: physicochemical
[7] = test system: Candida albicans (ATCC 90029); assay: Minimum inhibitory concentration (MIC) assay, Example 33; type: cell-based; conditions: for MIC: Candida albicans; for MIC Candida albicans: sulfate
Method in brief: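 Broth microdilution per CLSI guidelines in RPMI 1640; inoculum set to OD530 0.08–0.13, diluted 1:50 then 1:20 to 2× strength and mixed 1:2 with 2-fold serial compound dilutions. Incubated at 35° C; MIC read per CLSI.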

[8] = test system: Pseudomonas aeruginosa (ATCC 27853); assay: as above; type: cell-based
Method in brief: as §1

[9] = test system: Escherichia coli (ATCC 25922); assay: as above; type: cell-based
Method in brief: as §1

[10] = test system: Candida albicans (ATCC 90029); assay: Time kill study, Example 33 (0 to 5 min); type: cell-based; conditions: 1×MIC, sulfate
Method in brief: as §2

[11] = Aspergillus niger, CMCC98003, read-out: MIC Aspergillus niger
[12] = Staphylococcus aureus, ATCC29213, read-out: MIC S. aureus, n = 1
[13] = Staphylococcus aureus, ATCC29213, read-out: MIC S. aureus, n = 2
[14] = ATCC90029, read-out: MIC Candida albicans, n = 1
[15] = ATCC90029, read-out: MIC Candida albicans, n = 2
[16] = Pseudomonas aeruginosa, ATCC27853, Table 19 summary
[17] = Pseudomonas aeruginosa, ATCC27853, read-out: MIC P. aeruginosa, n = 1
[18] = Pseudomonas aeruginosa, ATCC27853, read-out: MIC P. aeruginosa, n = 2
[19] = Escherichia coli, ATCC25922, Table 19 summary of Example 33 and Example 35
[20] = Escherichia coli, ATCC25922, read-out: MIC E. coli, n = 1
[21] = Escherichia coli, ATCC25922, read-out: MIC E. coli, n = 2
[22] = Staphylococcus aureus, ATCC29213, Table 19 summary

SMILES: CCCCCCCCCCCCOC(=O)C(C)(C)N(C)C [Nex-58, Dodecyl 2-(dimethylamino)-2-methylpropanoate hydrochloride]
- MIC ([1]; Aspergillus niger, CMCC98003): > 12500 µg/mL
- MIC [1, 11]: > 12500 µg/mL
- MIC Aspergillus niger [1]: >12500 µg/mL
- MIC [2, 12]: 3130 µg/mL
- MIC [2, 13]: 1560 µg/mL
- Viable counts, Pseudomonas aeruginosa time kill study ([3]; 0.5 min): <4.0 Log10 CFU/mL
- Viable counts, Pseudomonas aeruginosa time kill study ([3]; 1 min): <3.70 Log10 CFU/mL
- Viable counts, Pseudomonas aeruginosa time kill study ([3]; 5 min): <3.52 Log10 CFU/mL
- Viable counts, Pseudomonas aeruginosa time kill study ([3]; time 0): 5.54 Log10 CFU/mL
- Viable counts, Staphylococcus aureus time kill study ([4]; 0.5 min): 6.15 Log10 CFU/mL
- Viable counts, Staphylococcus aureus time kill study ([4]; 1 min): 6.11 Log10 CFU/mL
- Viable counts, Staphylococcus aureus time kill study ([4]; 5 min): 5.81 Log10 CFU/mL
- Viable counts, Staphylococcus aureus time kill study ([4]; time 0): 6.26 Log10 CFU/mL
- Viable counts, Escherichia coli time kill study ([5]; 0.5 min): <4.0 Log10 CFU/mL
- Viable counts, Escherichia coli time kill study ([5]; 1 min): <3.70 Log10 CFU/mL
- Viable counts, Escherichia coli time kill study ([5]; 5 min): <3.52 Log10 CFU/mL
- Viable counts, Escherichia coli time kill study ([5]; time 0): 5.91 Log10 CFU/mL
- pH (pH (Table 1)): 2.27
- Sol. [6]: 51%
- MIC ([7]; ATCC90029, Table 19 summary): > 12500 µg/mL
- MIC [7, 14]: > 12500 µg/mL
- MIC [7, 15]: > 12500 µg/mL
- MIC [8, 16]: 6250 µg/mL
- MIC [8, 17]: 6250 µg/mL
- MIC [8, 18]: 6250 µg/mL
- MIC [9, 19]: 3130 µg/mL
- MIC [9, 20]: 3130 µg/mL
- MIC [9, 21]: 3130 µg/mL

SMILES: CCCCCCCCCCCCOC(=O)C(CC(C)C)N(C)C (centres unmarked) [Nex-55, Dodecyl 2-(dimethylamino)-4-methylpentanoate hydrochloride]
- MIC ([1]; Aspergillus niger, CMCC98003): > 12500 µg/mL
- MIC [1, 11]: > 12500 µg/mL
- MIC Aspergillus niger [1]: >12500 µg/mL
- MIC [2, 22]: 6250 µg/mL
- MIC [2, 12]: 6250 µg/mL
- MIC [2, 13]: 6250 µg/mL
- Viable counts, Pseudomonas aeruginosa time kill study ([3]; 0.5 min): 5.61 Log10 CFU/mL
- Viable counts, Pseudomonas aeruginosa time kill study ([3]; 1 min): 5.58 Log10 CFU/mL
- Viable counts, Pseudomonas aeruginosa time kill study ([3]; 5 min): 5.45 Log10 CFU/mL
- Viable counts, Pseudomonas aeruginosa time kill study ([3]; time 0): 5.37 Log10 CFU/mL
- Viable counts, Staphylococcus aureus time kill study ([4]; 0.5 min): 6.22 Log10 CFU/mL
- Viable counts, Staphylococcus aureus time kill study ([4]; 1 min): 6.21 Log10 CFU/mL
- Viable counts, Staphylococcus aureus time kill study ([4]; 5 min): 6.18 Log10 CFU/mL
- Viable counts, Staphylococcus aureus time kill study ([4]; time 0): 6.23 Log10 CFU/mL
- Viable counts, Escherichia coli time kill study ([5]; 0.5 min): 5.71 Log10 CFU/mL
- Viable counts, Escherichia coli time kill study ([5]; 1 min): 5.51 Log10 CFU/mL
- Viable counts, Escherichia coli time kill study ([5]; 5 min): 4.6 Log10 CFU/mL
- Viable counts, Escherichia coli time kill study ([5]; time 0): 5.68 Log10 CFU/mL
- pH (pH (Table 1)): 1.84
- Sol. [6]: 50%
- MIC ([7]; ATCC90029, Table 19 summary): > 12500 µg/mL
- MIC [7, 14]: > 12500 µg/mL
- MIC [7, 15]: > 12500 µg/mL
- MIC [8, 16]: 6250 µg/mL
- MIC [8, 17]: 6250 µg/mL
- MIC [8, 18]: 6250 µg/mL
- MIC [9, 19]: 6250 µg/mL
- MIC [9, 20]: 6250 µg/mL
- MIC [9, 21]: 6250 µg/mL

SMILES: CCCCCCCCCCCCOC(=O)C(C(C)C)N(C)C (centres unmarked) [Nex-53, Dodecyl 2-(dimethylamino)-3-methylbutanoate hydrochloride]
- MIC ([1]; Aspergillus niger, CMCC98003): > 12500 µg/mL
- MIC [1, 11]: > 12500 µg/mL
- MIC Aspergillus niger [1]: >12500 µg/mL
- MIC [2, 22]: 6250 µg/mL
- MIC [2, 12]: 6250 µg/mL
- MIC [2, 13]: 6250 µg/mL
- Viable counts, Pseudomonas aeruginosa time kill study ([3]; 0.5 min): 5.54 Log10 CFU/mL
- Viable counts, Pseudomonas aeruginosa time kill study ([3]; 1 min): 5.47 Log10 CFU/mL
- Viable counts, Pseudomonas aeruginosa time kill study ([3]; 5 min): 5.49 Log10 CFU/mL
- Viable counts, Pseudomonas aeruginosa time kill study ([3]; time 0): 5.54 Log10 CFU/mL
- Viable counts, Staphylococcus aureus time kill study ([4]; 0.5 min): 6.2 Log10 CFU/mL
- Viable counts, Staphylococcus aureus time kill study ([4]; 1 min): 6.24 Log10 CFU/mL
- Viable counts, Staphylococcus aureus time kill study ([4]; 5 min): 6.21 Log10 CFU/mL
- Viable counts, Staphylococcus aureus time kill study ([4]; time 0): 6.35 Log10 CFU/mL
- Viable counts, Escherichia coli time kill study ([5]; 0.5 min): 5.72 Log10 CFU/mL
- Viable counts, Escherichia coli time kill study ([5]; 1 min): 5.71 Log10 CFU/mL
- Viable counts, Escherichia coli time kill study ([5]; 5 min): <3.52 Log10 CFU/mL
- Viable counts, Escherichia coli time kill study ([5]; time 0): 5.64 Log10 CFU/mL
- pH (pH (Table 1)): 1.69
- Sol. [6]: 44%
- MIC ([7]; ATCC90029, Table 19 summary): > 12500 µg/mL
- MIC [7, 14]: > 12500 µg/mL
- MIC [7, 15]: > 12500 µg/mL
- MIC [8, 16]: 6250 µg/mL
- MIC [8, 17]: 6250 µg/mL
- MIC [8, 18]: 6250 µg/mL
- MIC [9, 19]: 6250 µg/mL
- MIC [9, 20]: 6250 µg/mL
- MIC [9, 21]: 6250 µg/mL

SMILES: CCCCCCCCCCCCOC(=O)C(C(C)O)N(C)C (centres unmarked) [Nex-51, Dodecyl 2-(dimethylamino)-3-hydroxybutanoate hydrochloride]
- pH (pH (Table 1)): 0.56
- Sol. [6]: 98%

SMILES: CCCCCCCCCCCCOC(=O)C(C)N(C)C (centres unmarked) [Nex-03, Dodecyl 2-(dimethylamino)propanoate sulfate]
- MIC ([1]; Aspergillus niger, CMCC98003, n = 1, read-out: MIC Aspergillus niger): > 12500 µg/mL
- MIC ([1]; Aspergillus niger, CMCC98003, n = 2, read-out: MIC Aspergillus niger): > 12500 µg/mL
- MIC ([1]; Table 19 summary, sulfate): >12500 µg/mL
- MIC ([2]; Table 19 summary, sulfate): 1560 µg/mL
- MIC S. aureus ([2]; n = 1, sulfate): 1560 µg/mL
- MIC S. aureus ([2]; n = 2, sulfate): 1560 µg/mL
- Viable counts, Pseudomonas aeruginosa time kill study ([3]; 0.5 min, sulfate): <4.0 Log10 CFU/mL
- Viable counts, Pseudomonas aeruginosa time kill study ([3]; 1 min, sulfate): <3.70 Log10 CFU/mL
- Viable counts, Pseudomonas aeruginosa time kill study ([3]; 5 min): <3.52 Log10 CFU/mL
- Viable counts, Pseudomonas aeruginosa time kill study ([3]; time 0, sulfate): 5.6 Log10 CFU/mL
- Viable counts, Candida albicans time kill study ([10]; 0.5 min): 5.53 Log10 CFU/mL
- Viable counts, Candida albicans time kill study ([10]; 1 min): 5.54 Log10 CFU/mL
- Viable counts, Candida albicans time kill study ([10]; 5 min): 5.52 Log10 CFU/mL
- Viable counts, Candida albicans time kill study ([10]; time 0): 5.6 Log10 CFU/mL
- Viable counts, Staphylococcus aureus time kill study ([4]; 0.5 min, sulfate): 6.1 Log10 CFU/mL
- Viable counts, Staphylococcus aureus time kill study ([4]; 1 min, sulfate): 6.12 Log10 CFU/mL
- Viable counts, Staphylococcus aureus time kill study ([4]; 5 min, sulfate): 6.11 Log10 CFU/mL
- Viable counts, Staphylococcus aureus time kill study ([4]; time 0, sulfate): 6.11 Log10 CFU/mL
- Viable counts, Escherichia coli time kill study ([5]; 0.5 min, sulfate): 4.90 Log10 CFU/mL
- Viable counts, Escherichia coli time kill study ([5]; 1 min, sulfate): 4.18 Log10 CFU/mL
- Viable counts, Escherichia coli time kill study ([5]; 5 min, sulfate): 3.82 Log10 CFU/mL
- Viable counts, Escherichia coli time kill study ([5]; time 0, sulfate): 4.92 Log10 CFU/mL
- pH (pH (Table 1); sulfate): 1.60
- MIC Candida albicans ([7]; n = 1): 12500 µg/mL
- MIC Candida albicans ([7]; n = 2): 6250 µg/mL
- MIC ([8]; Table 19 summary, sulfate): 3130 µg/mL
- MIC P. aeruginosa ([8]; n = 1, sulfate): 3130 µg/mL
- MIC P. aeruginosa ([8]; n = 2, sulfate): 3130 µg/mL
- MIC ([9]; Table 19 summary of Example 33 and Example 35, sulfate): 1560 µg/mL
- MIC E. coli ([9]; n = 1, sulfate): 1560 µg/mL
- MIC E. coli ([9]; n = 2, sulfate): 1560 µg/mL
